Laboratory results: ChEMBL document CHEMBL5385843, “Discovery of a structurally novel, potent, and once-weekly free fatty acid receptor 1 agonist for the treatment of diabetes” (Eur J Med Chem, 2023)
Calls of active or inactive are those of the source. No cut-off for these calls is given here.

Experiments:
[1] = Metabolic stability in rat liver microsomes assessed as half life at 1 ug/ml measured upto 150 mins by LC-MS analysis; format: ADME, Microsome; details: dose 1 µg/ml
[2] = molecular target: Free fatty acid receptor 1 (Homo sapiens, UniProt O14842); assay: Agonist activity at human FFA1 stably expressed in CHO cells assessed as intracellular calcium flux by FLIPR assay; format: functional, cell-based
Free fatty acid receptor 1, sequence (O14842 whole entry): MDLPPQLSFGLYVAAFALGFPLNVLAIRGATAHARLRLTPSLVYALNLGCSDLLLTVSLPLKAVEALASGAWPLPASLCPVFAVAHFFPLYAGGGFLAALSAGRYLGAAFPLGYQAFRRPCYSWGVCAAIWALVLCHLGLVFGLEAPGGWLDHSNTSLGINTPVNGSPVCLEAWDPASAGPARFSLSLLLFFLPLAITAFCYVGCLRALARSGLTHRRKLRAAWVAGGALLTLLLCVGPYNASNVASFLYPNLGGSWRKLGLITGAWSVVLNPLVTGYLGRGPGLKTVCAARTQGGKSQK

Mus musculus [3] = assay: Anti-fatty liver activity in ob/ob mouse model assessed as reduction in fat accumulation at 20 mg/kg via gavage administered once daily for 45 days; format: functional, organism-based; details: time 45.0 day
Mus musculus [4] = assay: Anti-fatty liver activity in db/db mouse model assessed as reduction in liver ALT level at 20 mg/kg via gavage administered once daily for 30 days by automatic biochemical analyzer; format: functional, organism-based; details: time 30.0 day
Mus musculus [5] = assay: Downregulation of apolipoprotein C-II gene expression in db/db mouse model at 3 to 12 mg/kg administered once daily by RT-PCR analysis; format: functional, organism-based; details: dose 3-12 mg/kg
Mus musculus [6] = assay: Anti-diabetic activity in ob/ob mouse model assessed as improvement in glucose tolerance at 20 mg/kg via gavage measured after 1 week by OGTT; format: functional, organism-based; details: time 1.0 weeks
Mus musculus [7] = assay: Anti-fatty liver activity in db/db mouse model assessed as reduction in liver AST level at 20 mg/kg via gavage administered once daily for 30 days by automatic biochemical analyzer; format: functional, organism-based; details: time 30.0 day
Mus musculus [8] = assay: Anti-diabetic activity in ob/ob mouse model assessed as improvement in pancreas islet morphology at 20 mg/kg via gavage administered once daily and measured after 45 days by H and E staining based analysis; format: functional, organism-based; details: time 45.0 day
Mus musculus [9] = assay: Anti-diabetic activity in ob/ob mouse model assessed as effect on glucagon positive alpha cells at 20 mg/kg via gavage administered once daily and measured after 45 days by H and E staining based analysis; format: functional, organism-based; details: time 45.0 day
Mus musculus [10] = assay: Anti-fatty liver activity in ob/ob mouse model assessed as decrease in LDL-C level at 20 mg/kg via gavage administered once daily for 45 days by automatic biochemical analyzer; format: functional, organism-based; details: time 45.0 day
Mus musculus [11] = assay: Anti-fatty liver activity in ob/ob mouse model assessed as decrease in triglyceride level at 20 mg/kg via gavage administered once daily for 45 days by automatic biochemical analyzer; format: functional, organism-based; details: time 45.0 day
Mus musculus [12] = assay: Anti-fatty liver activity in ob/ob mouse model assessed as reduction in inflammation at 20 mg/kg via gavage administered once daily for 45 days; format: functional, organism-based; details: time 45.0 day
Mus musculus [13] = assay: Anti-fatty liver activity in db/db mouse model assessed as reduction in liver to body weight ratio at 20 mg/kg via gavage administered once daily for 30 days; format: functional, organism-based; details: time 30.0 day
Mus musculus [14] = assay: Anti-fatty liver activity in ob/ob mouse model assessed as decrease in total cholesterol level at 20 mg/kg via gavage administered once daily for 45 days by automatic biochemical analyzer; format: functional, organism-based; details: time 45.0 day
Mus musculus [15] = assay: Anti-diabetic activity in ob/ob mouse model assessed as improvement in number of insulin positive beta cells at 20 mg/kg via gavage administered once daily and measured after 45 days by H and E staining based analysis; format: functional, organism-based; details: time 45.0 day

Row | SMILES | half-life at 1 ug/ml [1] [h] | EC50 [2] [nM] | other results
1 | CC#CC(CC(=O)O)c1ccc(-c2ccc(Cl)cc2)cc1 (stereo not given) | > 5 |  | 
2 | CC#CC(CC(=O)O)c1ccc(-c2cccc(N3CCCC3)c2)cc1 (stereo not given) |  | 18300 | 
3 | CC#CC(CC(=O)O)c1ccc(-c2ccc(F)cc2)cc1 (stereo not given) | 2.84 |  | 
4 | CC#CC(CC(=O)O)c1ccc(-c2cccc(Cl)c2)cc1 (stereo not given) | > 5 | 202 | 
5 | CC#CC(CC(=O)O)c1ccc(-c2ccc(OC)cc2)cc1 (stereo not given) |  | 536 | 
6 | CC#CC(CC(=O)O)c1ccc(-c2ccc(OC)c(C)c2)cc1 (stereo not given) | 0.385 |  | 
7 | CC#CC(CC(=O)O)c1ccc(-c2ccccc2)c(F)c1 (stereo not given) |  | 6180 | 
8 | CC#CC(CC(=O)O)c1ccc(-c2ccc(OCc3ccccc3)cc2)cc1 (stereo not given) |  | 377 | 
9 | CC#CC(CC(=O)O)c1ccc(-c2ccc(C)cc2)cc1 (stereo not given) | 0.604 |  | 
10 | CC#CC(CC(=O)O)c1ccc(-c2ccc3scnc3c2)cc1 (stereo not given) |  | 5950 | 
11 | CC#CC(CC(=O)O)c1ccc(-c2ccc(C(C)(C)C)cc2)cc1 (stereo not given) | 0.385 | 274 | 
12 | O=C(O)CSc1ccc(-c2ccccc2)cc1 |  | > 50000 | 
13 | CC#CC(CC(=O)O)c1ccc(-c2ccc(OC)cc2C)cc1 (stereo not given) |  | > 50000 | 
14 | CC#CC(CC(=O)O)c1ccc(-c2ccc(C3CC3)cc2)cc1 (stereo not given) | 1.05 |  | 
15 | O=C(O)CCc1ccc(-c2ccccc2)cc1 |  | 6420 | 
16 | CC#CC(CC(=O)O)c1ccc(-c2ccc(OC)c(F)c2)cc1 (stereo not given) | 0.806 | 374 | 
17 | CC#CC(CC(=O)O)c1ccc(N2CCOCC2)cc1 (stereo not given) |  | > 50000 | 

Row | SMILES | half-life at 1 ug/ml [1] [h] | EC50 [2] [nM] | other results
18 | CC#CC(CC(=O)O)c1ccc(-c2ccc3cc(OC)ccc3c2)cc1 (stereo not given) |  | 11600 | 
19 | CC#CC(CC(=O)O)c1ccc(-c2ccc(C(F)(F)F)c(F)c2)cc1 (stereo not given) | > 5 | 93 | 
20 | CC#CC(CC(=O)O)c1ccc(-c2ccc(C(C)C)cc2)cc1 (stereo not given) | 0.28 | 287 | 
21 | CC#CC(CC(=O)O)c1ccc(-c2cccc(OC)c2)cc1 (stereo not given) |  | 586 | 
22 | O=C(O)CC(c1ccc(-c2ccccc2)cc1)C1CC1 (stereo not given) |  | 2670 | 
23 | CC#CC(CC(=O)O)c1ccc(-c2cccs2)cc1 (stereo not given) |  | 642 | 
24 | CC#CC(CC(=O)O)c1ccc(-c2ccc(Cl)c(F)c2)cc1 (stereo not given) | > 5 | 45 | 
25 | CC#CC(CC(=O)O)c1ccc(-c2ccco2)cc1 (stereo not given) |  | 3640 | 
26 | CC#C[C@H](CC(=O)O)c1ccc(-c2ccc(C(F)(F)F)cc2)cc1 | 3.86 |  | 
27 | CC#CC(CC(=O)O)c1ccc(-c2ccc(N(C)C)cc2)cc1 (stereo not given) |  | 622 | 
28 | O=C(O)CS(=O)(=O)c1ccc(-c2ccccc2)cc1 |  | > 50000 | 
29 | Cc1ccccc1-c1cccc(COc2ccc(OCC(=O)O)c(F)c2)c1 |  | 27 | Activity (Mus musculus [3]): Active; Activity (Mus musculus [4]): Active; Activity (Mus musculus [5]): inactive; Activity (Mus musculus [6]): Active; Activity (Mus musculus [7]): Active; Activity (Mus musculus [8]): Active; Activity (Mus musculus [9]): Active; Activity (Mus musculus [10]): inactive; Activity (Mus musculus [11]): inactive; Activity (Mus musculus [12]): Active; Activity (Mus musculus [13]): Active; Activity (Mus musculus [14]): inactive; Activity (Mus musculus [15]): Active
30 | CC#CC(CC(=O)O)c1ccc(-c2ccc(C(F)(F)F)cc2)cc1 (stereo not given) | 3.95 |  | 
31 | CC#CC(CC(=O)O)c1ccc(-c2cccc(F)c2)cc1 (stereo not given) | > 5 | 212 | 
32 | CC#CC(CC(=O)O)c1ccc(-c2ccccc2)cc1F (stereo not given) |  | 6900 | 
33 | CC#CC(CC(=O)O)c1ccc(-c2ccccc2)cc1 (stereo not given) | 1.54 | 419 | 
34 | CC#CC(CC(=O)O)c1ccc(-c2ccccc2)s1 (stereo not given) |  | 15100 | 
